# Experimental data taken from PMC8533149 (Biomolecules, 2021).
# System: HIV-1 LTR-III G-quadruplex (FAM/TAMRA-labeled LTR-III)
# Assay: FRET melting assay, LTR-III G4
# Format: binding
# Details: Table S1 primary screening, ligand:ODN 50:1, singlicate
# Summary of the method: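 Melting is followed by FAM fluorescence (ex 495/em 520 nm) while heating at 1 °C/min from 30 to 95 °C. Labelled ODN at 0.5 μM, pre-annealed in 10 mM Li cacodylate, 100 mM KCl, pH 7.4, mixed with ligand at 50:1 (25 μM), or 20:1 and 2:1 for titration. ΔTm is relative to the 0.25% DMSO buffer control.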
row,SMILES,LTR-III ΔTm
1,COc1ccc(C=C2N=C(Nc3ccc(C#N)cc3)N(C)C2=O)cc1 [SA 179],0.7 °C
2,CC(C)OC(=O)c1noc(=O)c(O)c1-c1ccccc1 [SA 300A],0.1 °C
3,CC(C)OC(=O)c1noc(=O)c(O)c1-c1cccc2ccccc12 [SA 300B],-0.9 °C
4,CC(C)OC(=O)c1noc(=O)c(O)c1-c1ccc(C(C)C)cc1 [SA 300D],-1.2 °C
5,CC(C)OC(=O)c1noc(=O)c(O)c1-c1ccccc1F [SA 305A],-0.7 °C
6,CC(C)OC(=O)c1noc(=O)c(O)c1-c1cccc(C(F)(F)F)c1 [SA 305B],-0.5 °C
7,CC(C)OC(=O)c1noc(=O)c(O)c1-c1ccc(N(C)C)cc1 [SA 305C],-0.6 °C
8,CC(C)OC(=O)c1noc(C(=O)N2CCCC2)c1-c1ccccc1 [SA 307A],-0.3 °C
9,COc1ccc(-c2c(C(=O)OC(C)C)noc2C(=O)N2CCCC2)cc1 [SA 309],-0.5 °C
10,CNC(=O)c1onc(C(=O)OC(C)C)c1-c1ccccc1 [SA 325A],-0.5 °C
11,CC(C)OC(=O)c1noc(C(=O)NC2CCCCC2)c1-c1ccccc1 [SA 325E],-0.6 °C
12,CNC(=O)c1onc(C(=O)OC(C)C)c1-c1cccs1 [SA 330A],-0.5 °C
13,CC(C)OC(=O)c1noc(C(=O)NCc2ccccc2)c1-c1cccs1 [SA 330E],-0.7 °C
14,CNC(=O)c1onc(C(=O)OC(C)C)c1-c1ccccc1F [SA 331A],-0.7 °C
15,CC(C)OC(=O)c1noc(C(=O)NC2CCCCC2)c1-c1ccccc1F [SA 331D],-0.7 °C
16,CC(C)OC(=O)c1noc(C(=O)NCc2ccccc2)c1-c1ccccc1F [SA 331E],-0.9 °C
17,CNC(=O)c1onc(C(=O)OC(C)C)c1-c1ccc(N(C)C)cc1 [SA 332.1],-0.4 °C
18,CC(C)OC(=O)c1noc(C(=O)N2CCCC2)c1-c1ccc(N(C)C)cc1 [SA 332.2],-0.4 °C
19,CC(C)OC(=O)c1noc(C(=O)NCc2ccccc2)c1-c1ccc(N(C)C)cc1 [SA 332E1],-0.6 °C
20,C[C@H](CS)C(=O)N1CCC[C@H]1C(=O)O [SA 333],-0.4 °C
21,COc1ccc(-c2c(C(=O)OC(C)C)noc2C(=O)N2CCOCC2)cc1 [SA 341A],-0.7 °C
22,COc1ccc(-c2c(C(=O)OC(C)C)noc2C(=O)NC2CCCCC2)cc1 [SA 341B],-0.2 °C
23,COc1ccc(-c2c(C(=O)OC(C)C)noc2C(=O)NCc2ccccc2)cc1 [SA 341C],-0.2 °C
24,CC(C)OC(=O)c1noc(C(=O)N2CCOCC2)c1-c1ccc(C(C)C)cc1 [SA 342A],-0.3 °C

row,SMILES,LTR-III ΔTm
1,CC(C)OC(=O)c1noc(C(=O)NCc2ccccc2)c1-c1ccc(C(C)C)cc1 [SA 342B],-0.5 °C
2,CC(C)OC(=O)c1noc(C(=O)N2CCOCC2)c1-c1cccc2ccccc12 [SA 343A],-0.4 °C
3,CC(C)OC(=O)c1noc(C(=O)NCc2ccccc2)c1-c1cccc2ccccc12 [SA 343B],-0.9 °C
4,CC(C)OC(=O)c1noc(C(=O)N2CCOCC2)c1-c1cccc(C(F)(F)F)c1 [SA 344A],-0.5 °C
5,CC(C)OC(=O)c1noc(C(=O)NCc2ccccc2)c1-c1cccc(C(F)(F)F)c1 [SA 344B],-0.7 °C
6,CC(C)OC(=O)c1noc(C(=O)NCc2ccccc2)c1-c1ccc(O)cc1 [SA 345B],-0.8 °C
7,COc1ccc(-c2c(C(=O)OC(C)C)noc2C(=O)NCc2ccccn2)cc1 [SA 350C],-0.6 °C
8,COc1ccc(-c2c(C(=O)OC(C)C)noc2C(=O)N2CCCCC2)cc1 [SA 375],-0.4 °C
9,COC(=O)c1ccc(C=C2N=C(C)N(C)C2=O)cc1 [SA 400],0 °C
10,COc1ccc2cc(OC)c(C=C3N=C(C)N(C)C3=O)cc2c1 [SA 410],-0.2 °C
11,CC1=NC(=Cc2ccc([N+](=O)[O-])cc2)C(=O)N1C [SA 412],0 °C
12,CC1=NC(=Cc2ccc(C#N)cc2)C(=O)N1C [SA 433],-0.4 °C
13,CC1=NC(=Cc2ccnc3ccccc23)C(=O)N1C [SA 471],-0.1 °C
14,COc1ccc(C=C2N=C(C=C(SC)c3ccccc3)N(C)C2=O)cc1 [SA 474.1],0 °C
15,CSC1=NC(=Cc2ccc(O[Si](c3ccccc3)(c3ccccc3)C(C)(C)C)cc2)C(=O)N1C [SA 497],-0.4 °C
16,CNC(=O)c1onc(C(=O)OC)c1-c1ccc(OC)cc1 [SA 561A],-0.3 °C
17,COC(=O)c1noc(C(=O)N2CCCC2)c1-c1ccc(OC)cc1 [SA 561B],-0.6 °C
18,COC(=O)c1noc(C(=O)N2CCCCC2)c1-c1ccc(OC)cc1 [SA 561C],-1 °C
19,COC(=O)c1noc(C(=O)NCc2ccccc2)c1-c1ccc(OC)cc1 [SA 561D],-0.4 °C
20,COC(=O)c1noc(C(=O)N2CCOCC2)c1-c1ccc(OC)cc1 [SA 561E],-0.7 °C
21,CCOC(=O)c1noc(=O)c(O)c1-c1ccc(OC)cc1 [SA 562B],-1 °C
22,CSC1=NC(=Cc2ccc(O)cc2)C(=O)N1C [SA 581],1 °C
23,CSC(=CC1=NC(=Cc2ccc(O)cc2)C(=O)N1C)c1ccccc1 [SA 599.21],-0.3 °C
24,COc1cc(/C=C/c2ccc(O)cc2OC)oc(=O)c1 [SAI 32],0.4 °C

row,SMILES,LTR-III ΔTm
1,O=C1NC(=S)SC1=Cc1cc(Br)c(O)c(Br)c1 [SAI 112],0.3 °C
2,COc1cc(C=C2SC(=S)NC2=O)c(OC)cc1O [SAI 115],-0.3 °C
3,O=C1NC(=S)SC1=Cc1ccc(O)c(Br)c1 [SAI 117],-0.2 °C
4,O=C1NC(=S)SC1=Cc1cc(F)c(O)c(F)c1 [SAI 118],0 °C
5,O=C1NC(=S)SC1=Cc1ccc(O)c(C(=O)O)c1 [SAI 120],0.6 °C
6,O=C1NC(=S)SC1=Cc1ccc(O)cc1Br [SAI 122],0.1 °C
7,O=C1NC(=S)SC1=Cc1ccc(O)c(Cl)c1 [SAI 125],0.6 °C
8,O=C1NC(=S)SC1=Cc1cc(Cl)c(O)c(Cl)c1 [SAI 127],-0.2 °C
9,COc1cc(O)ccc1C=C1N=C(c2cccs2)N(C)C1=O [SH 016.3B],0.9 °C
10,CC(=O)NC(=Cc1ccccc1)C(=O)NO [SV 6],0 °C
11,CC(=O)NC(=Cc1ccc(O)cc1)C(=O)NO [SV 7],0 °C
12,CCC1=NC(=Cc2c[nH]c3ccccc23)C(=O)O1 [SV 11],0 °C
13,CCC(=O)NC(=Cc1c[nH]c2ccccc12)C(=O)NC [SV 13],-0.1 °C
14,CCC1=NC(=Cc2c[nH]c3ccccc23)C(=O)N1C [SV 14],0 °C
15,COc1ccc(C=C2N=C(C=C(OC(=O)c3ccc(C)cc3)c3ccc(C)cc3)N(C)C2=O)cc1 [SV 18],0.4 °C
16,COc1ccc(C=C2N=C(C=C(O)c3ccc(C)cc3)N(C)C2=O)cc1 [SV 29],-0.2 °C
17,COc1ccc(C=C2N=C(C=C(O)c3ccc(F)cc3)N(C)C2=O)cc1 [SV 30],-0.4 °C
18,CC1=NC(=Cc2ccccc2F)C(=O)N1C [SV 50.9],-0.2 °C
19,CC1=NC(=Cc2ccc(F)cc2)C(=O)N1C [SV 50.10],-0.2 °C
20,COc1cccc(C=C2N=C(C)N(C)C2=O)c1 [SV 50.11],-0.2 °C
21,CC1=NC(=Cc2ccc(O)c(C(=O)O)c2)C(=O)N1C [SV 51.1],-0.4 °C
22,CC1=NC(=Cc2cc(Br)cc(Br)c2)C(=O)N1C [SV 51.5],-0.3 °C
23,CC1=NC(=Cc2ccc(Br)cc2)C(=O)N1C [SV 51.10],-0.2 °C
24,CC1=NC(=Cc2cccc3ccccc23)C(=O)N1C [SV 51.12],0.4 °C

row,SMILES,LTR-III ΔTm
1,CC1=NC(=Cc2ccc([N+](=O)[O-])c(O)c2)C(=O)N1C [SV 52.7],-0.2 °C
2,CC1=NC(=Cc2ccc(Br)c([N+](=O)[O-])c2)C(=O)N1C [SV 52.8],0.6 °C
3,COc1ccc(C=C2N=C(SC)N(C)C2=O)cc1 [VZ 1],0.4 °C
4,CC(C)(C)[Si](Oc1ccc(C=C2NC(=S)NC2=O)cc1)(c1ccccc1)c1ccccc1 [VZ 2],-0.2 °C
5,CC1=NC(=Cc2ccc3cc(N(C)C)ccc3c2)C(=O)N1C [X 001],-0.5 °C
6,CC1=NC(=Cc2ccc3cc(N4CCOCC4)ccc3c2)C(=O)N1C [X 002],-0.6 °C
7,CC1=NC(=Cc2cc3c4c(c2)CCCN4CCC3)C(=O)N1C [X 4],1 °C
8,CC1=NC(=Cc2ccc(N)c(O)c2)C(=O)N1C [X 5],0.9 °C
9,CCOC(=O)CN1C(=O)C(=Cc2ccc(Br)cc2)N=C1c1ccccc1 [X 6],-0.1 °C
10,CC1=NC(=Cc2ccc(OCc3ccccc3)cc2)C(=O)N1C [X 7],0 °C
11,C=CCOc1ccc(C=C2N=C(C)N(C)C2=O)cc1 [X 8],0 °C
12,CC1=NC(=Cc2ccc(Br)cc2)C(=O)N1Cc1ccccc1 [X 9],-0.6 °C
13,CC1=NC(=Cc2ccc(O)cc2)C(=O)N1CCCNC(=O)OC(C)(C)C [X 10],-0.2 °C
14,C=CCc1cc(C=C2N=C(C)N(C)C2=O)ccc1O [X 11],-0.2 °C
15,C#CCN1C(=O)C(=Cc2ccc(O)cc2)N=C1C [X 12],0.2 °C
16,CC(=O)Oc1ccc(C=C2N=C(C)NC2=O)cc1 [X 13],-0.8 °C
17,CC(=O)C1=NC(=Cc2ccc(O)cc2)C(=O)N1C [X 18],0.6 °C
18,CN1C(=O)C(=Cc2ccc(OCc3ccccc3)cc2)N=C1C(C)(C)C [X 20],-0.2 °C
19,CN1C(=O)C(=Cc2ccc(O)cc2)N=C1CCCCCNC(=O)OC(C)(C)C [X 21],-0.1 °C
20,COc1ccc(CN(C(C)=O)C(C)C2=NC(=Cc3ccc(O)cc3)C(=O)N2C)cc1 (stereo not drawn) [X 23],0.5 °C
21,O=C1NC(c2ccccc2)=NC1=Cc1ccc(O)cc1 [X 24],-0.5 °C
